Measurements from PMC7874188, “Mucoromycotina Fungi Possess the Ability to Utilize Plant Sucrose as a Carbon Source: Evidence From Gongronella sp. w5” (Frontiers in Microbiology, 2021).

Tested on: T1, GspInv
T1 construct: native, purified from w5 mycelia cytoplasm (High Q, Sephacryl S100); untagged
Experiment: invertase hydrolysis kinetics, […] substrate
Format: biochemical, Gongronella sp. w5
Settings: pH 5.0 citrate-Na2HPO4, optimal temperature; constant printed only as "substrate affinity"

OC[C@H]1O[C@@](CO)(O[C@H]2O[C@H](CO)[C@@H](O)[C@H](O)[C@H]2O)[C@@H](O)[C@@H]1O [sucrose]
Km: 3.1 mM
